The values below come from a melting point compilation (Tetko et al.).

With `COC(=O)c1ccccc1C(=O)c1ccccc1`, the melting point (in general, the temperature, or range, at which the solid turns liquid) is 52 °C.
Consider `CNc1ccccc1OC`, for which the melting point lay in the range of 30 to 33 °C.
On to `Cc1nc(O)cc(O)n1`, for which the melting point stood at 360 °C.
The value for `CC(=O)C(C#N)(Cc1ccc([N+](=O)[O-])cc1)c1ccccc1` (stereo not drawn) was 82 °C.
The value for `CCCCc1ccc(NC(=O)c2ccc(OC)cc2)cc1` was 146 to 148 °C; that for `CC(C)(C)NC(=O)C1CCC2CC34CCC(CC=C3C=C(O)C=O)C4CCC21C` (stereo not drawn) was 257 °C; that for `O=C(O)Cc1cccc(F)c1F` was 118 °C.
For `O=C(CNc1ccc(NCC(=O)c2ccccc2)cc1)c1ccccc1` the value was 151 °C.
For `CCCCCC(c1ccccc1)c1ccccc1`, the melting point is -12 °C.
For `Cc1nc(-c2ccc(C(F)(F)F)cc2)sc1S(=O)(=O)Cl` the value was 93 to 94 °C.
For the compound `Cc1ccc(S(=O)(=O)N[C@H](c2ccccc2)[C@H](NS(=O)(=O)c2ccc(C)cc2)c2ccccc2)cc1`, the melting point fell in the range of 203 to 208 °C.
The value for `C1CCCCCCCCCCCC1` was 23 °C; that for `CCOC(=O)CCC(=O)OC(C(=O)c1ccccc1)c1ccccc1` (stereo not drawn) was 48 to 57 °C.
For `CC(C)c1ccccc1Br` the value was -59 °C; for `NC(=O)c1cc(Cl)cc(Cl)c1`, 160 to 162 °C.
The value for `NCCC(=O)N[C@@H](Cc1c[nH]cn1)C(=O)O` was 260 °C; that for `CCOC(=O)Nc1ccccc1` was 47 to 51 °C.
For the compound `Cc1cc2c(C#N)c3ccc4ccccc4n3c(=O)c2c(C)n1`, the melting point stood at 243 °C.
The value for `O=Cc1coc2c(Cl)cc(Cl)cc2c1=O` was 169 to 174 °C; that for `CCOc1ccccc1C=O` was 21 °C; that for `Cc1cc(C(=O)CCl)c(C)n1-c1ccc(F)cc1` was 80 to 82 °C.
Compound `c1ccc(-c2ccc(-c3cnc(-c4ccc(-c5ccccc5)cc4)o3)cc2)cc1` returned a melting point of 239 °C.
For `CS(=O)(=O)c1scc(-c2ccccc2)c1C#N` the value was 164 to 166 °C; for `CC(C)(CCl)C(=O)O`, 41.5 °C; for `CN(C)Cc1c[nH]c2ccccc12`, 138 °C.
The value for `N#CC1=C(N)n2nc(C(F)(F)F)nc2NC1c1ccc(Cl)cc1Cl` (stereo not drawn) was 305 to 307 °C.
The value for `CC(=O)c1sc(-c2ccccc2)nc1C` was 67 to 68 °C; that for `CC(C)(C)OC(=O)N[C@@H](CO)c1ccccc1` was 136 to 139 °C; that for `O=C(c1ccc(F)cc1)c1cccs1` was 97 °C.
`Nc1cccc(-c2ccsc2)c1` came in with a melting point of 89 °C.
The value for `Brc1ccc(-c2ccc(Br)s2)s1` was 143 to 146 °C.
The value for `CCCCCCCCCCCCCCCC=O` was 35 °C; that for `C=C(C)C1CC=C(C)C(=NO)C1` (stereo not drawn) was 71.5 °C; that for `COc1cc(C/C(=N\O)C(=O)O)ccc1O` was 139 °C.
For `CC(C)(C)c1cc(C(=S)Nc2ccccc2)cc(C(C)(C)C)c1O` the value was 227 to 228 °C.
For `CCCCCCCCCCCCCC(CCCCCCCCCCCC)CCCCCCCCCCCC`, the melting point came to 13.7 °C.
For `CN[C@@H](Cc1ccc(O)cc1)C(=O)O` the value was 293 °C.
Consider `CC(C)(C)C(O)C(=Cc1ccc(Cl)cc1Cl)n1cncn1` (stereo not drawn), for which the melting point is 148 to 149 °C.
For `Clc1ccc2oc3c(Cl)c(Cl)c(Cl)c(Cl)c3c2c1` the value was 178 °C; for `O=C1/C(=N/Nc2cccnc2)C(C(F)(F)F)=NN1c1ccccc1`, 161 °C; for `OCCN(CCO)c1ccc(N=Nc2ccccc2)cc1`, 134 °C.
For the compound `O=C(O)C=C(CC(=O)O)C(=O)O`, the melting point was in the range of 187 to 191 °C.
For `CCC(Nc1ncnc(C)c1Cl)c1ccc(OC(F)F)cc1` (stereo not drawn) the value was 47.8 °C.
